Assay results taken from patent US6346544B2, “Desmethyl tocopherols for protecting cardiovascular tissue” (Oklahoma Medical Research Foundation, priority 2000, dated 2002).

Experiments:
[1] = plasma concentrations of tocopherols and 5-NO2-γ-tocopherol in volunteers; assay type: in vivo, human; details: mean ± SEM
From the text: Smoking is recognized as a major contributing factor to heart disease and γ-T reportedly decreases more than α-T in smokers. Hypertension is also a strong risk factor for heart disease. […] Seven subjects indicated a chronic hypertensive condition. As outlined in Table I, γ-tocopherol tended to decrease in hypertensive subjects while nitration products tended to increase in both smokers and hypertensive subjects. This was the trend regardless of whether the tocopherol concentrations were normalized to plasma triglycerides (Table I).

αKGDH [2] = experiment: αKGDH protection against SIN-1 nitrative stress in isolated mitochondria in vitro; assay type: biochemical, rat
Protocol: FIG. 3 is a graph showing rat brain mitochondria exposed to 0.4 mM SIN-1 for 1 H after addition of tocopherol. (•)α-tocopherol; (▪)γ-tocopherol. The scale bars labeled [α]norm and [Y]norm indicate the normal endogenous quantities of α-tocopherol and γ-tocopherol, respectively, in human brain.
αKGDH is a rate-limiting enzyme of mitochondrial energy production which is diminished in conditions of vascular ischemia (53-58); augmentation of the enzyme with α-ketoglutarate has been found beneficial and α-ketoglutarate is now included as a component in cardioplegia fluid to improve recovery after heart surgery (59). We undertook to determine whether γT protects αKGDH against nitrative stress in vitro. Mitochondria were isolated from adult rat brain then sonicated briefly in the presence of either αT or γT, or an ethanol vehicle. Mitochondria were then exposed to SIN-1, which generates NO and superoxide simultaneously at a known rate (7). Combination of NO and superoxide yields ONOO^−. in situ (discussed above).

αKGDH [3] = experiment: heart αKGDH activity after tocopherol supplementation, with or without LPS challenge; assay type: in vivo, rat
Protocol: Rats were injected with 15 mg of tocopherol over the first 1 month of life; specific groups were then challenged with a septic dose of LPS and heart αKGDH activity was assayed 24 H later. *p<0.1 relative to vehicle; †p<0.05 relative to vehicle. N=5/group.
Rat pups were injected intraperitoneally (I.P.) with αT or γT in an olive oil vehicle every other day for 30 days beginning 2 days after birth; control animals received vehicle only. […] A total of 15 mg tocopherol was delivered to each animal over the 30 day period; animal weight at the end of the period was approximately 90 g for all three groups. One half of each animal group was injected with a septic dose of LPS (2.5 mg/kg, I.P). After 24 H, animals were killed and organs collected. αKGDH was assayed in heart tissue and tocopherols were measured by HPLC-ECD/PDA.

[4] = rat, in vivo, 30 days
Protocol: Rat pups were injected intraperitoneally (I.P.) with αT or γT in an olive oil vehicle every other day for 30 days beginning 2 days after birth; control animals received vehicle only. Olive oil was chosen as a vehicle because of the low tocopherol content in this particular vegetable oil. […] One half of each animal group was injected with a septic dose of LPS (2.5 mg/kg, I.P). After 24 H, animals were killed and organs collected. αKGDH was assayed in heart tissue and tocopherols were measured by HPLC-ECD/PDA.

platelets = experiment: platelet aggregation in vitro (PRP, aggregometer); assay type: cell-based, human; details: for Platelet Aggregation (% maximum): 500 μM α-tocopherol or 50 μM γ-tocopherol, 1 H preincubation
Protocol: […] inhibits platelet aggregation in vitro and in vivo, apparently through antagonism of protein kinase C (PKC) (60-63). Concentrations of αT necessary to inhibit aggregation in vitro are on the order of 500 μM (60-63), or approximately 10-fold higher than achieved in vivo. The concentration difference between in vitro and in vivo efficacy has been rationalized on the basis of incomplete tocopherol incorporation into membranes during in vitro incubation (63). Nonetheless, subjects supplemented with oral αT have diminished platelet aggregation (63). We therefore sought to investigate the ability of γ-tocopherol to inhibit platelet aggregation. PRP was obtained from two volunteers. Platelets were stimulated to aggregate with ADP, thrombin receptor activating peptide (TRAP) or the PKC agonist phorbol myristyl acetate (PMA) and aggregation was measured using a 4-channel clinical aggregometer. Specific platelet samples were preincubated with vehicle, αT, γT or 5-NO2-γ-tocopherol for 1 H prior to stimulation. Tocopherol concentrations were set at 10-fold excess to average PRP levels based on the precedent of previous in vitro aggregation experiments that used αT as an inhibitor (60-63).

[5] = human plasma γT relative to αT; assay type: in vivo
From the text: Chemistry of tocopherol reaction with oxidizing agents. γ-Tocopherol is a natural product (a desmethyl tocopherol) of plant origin, present in many vegetable oils, especially soybean oil (1-2). γ-Tocopherol is normally taken into the body through consumption of foodstuffs. Human plasma γT concentration is variously reported as 5-30% of αT (3). The γTαT ratio varies markedly among individuals; plasma γT/αT proportionalities may be as low as 0.2% and as high as 30% (inventors' observations). Both αT and γT are absorbed equally well by the gut, but γT is packaged into lipoproteins less effectively than αT (4). For this reason, αT supplementation decreases systemic γT concentration (3-4).
γ-Tocopherol in human biology and cardiovascular disease. Relative to αT, a dearth of epidemiological data exists for γT. Human plasma γT concentration is variously reported as between 5-30% that of αT (41). In platelet-poor plasma, we find that 7% is very close to the correct value in young healthy subjects. The γT/αT ratio varies markedly among individuals; we have observed plasma γT/αT proportionalities as low as 0.2% and as high as 30%. γT is now a major tocopherol in the US diet, due to the high intake of soybean and vegetable oils that are abundant sources of γT (40). Both αT and γT are absorbed equally well by the gut, but γT is packaged into lipoproteins less effectively than αT (39). For this reason, αT supplementation decreases systemic γT concentration (41-42). δ-Tocopherol, β-tocopherol and tocol (other demethylated tocopherol homologs) exist in human plasma at approximately 1:10 ratios relative to γT (41). Detailed demographic data regarding plasma and tissue levels of desmethylated tocopherols and their oxidation products have never been published. While extensive data has been collected on α-tocopherol as a possibly beneficial molecule in cardiovascular disease, very little data has been collected on γT.

[6] = system: ECV304 human endothelial cells; details: 10 μM α-T, 10 μM γ-T or 5 μM of each; 19 hours preincubation; 5 mM SIN-1; 24 hours
Protocol: Cultured ECV304 human endothelial cells were exposed to SIN-1 in the presence of 10 μM α-T, 10 μM γ-T or 5 μM of each (FIG. 5). Tocopherols were incubated with the cells for 19 hours prior to addition of SIN-1. Viability was assayed 24 hours later using a standard tetrazolium (MTT) reduction assay.

C3H/10T1/2 fibroblasts = details: methylcholanthrene-treated C3H/10T1/2 fibroblasts; cited from earlier work
[7] = liposomes exposed to ONOO−; cited from earlier work
[8] = tocopherol-depleted rats fed two weeks after iron-dextran; cited from earlier work
[9] = cited from earlier work
[10] = 100 mg/kg/day, 10 days, cited from earlier work
[11] = variously reported; cited from earlier work
[12] = rat brain mitochondria, 400 μM SIN-1, one hour

## Cc1c(C)c2c(c([N+](=O)[O-])c1O)CCC(C)(CCCC(C)CCCC(C)CCCC(C)C)O2 (stereo not drawn) [5-NO2-γ-tocopherol, 5-nitro-γ-tocopherol]
[1]; hypertensives, N = 7
  plasma concentration: 20.0 ± 3.7 ng/mL plasma
  plasma concentration normalized to triglyceride: 34.9 ± 10.9 ng/mg triglyceride
[1]; population, N = 54
  plasma concentration: 11.3 ± 1.6 ng/mL plasma
  plasma concentration normalized to triglyceride: 14.0 ± 2.5 ng/mg triglyceride
[1]; smokers, N = 7
  plasma concentration: 20.0 ± 3.3 ng/mL plasma
  plasma concentration normalized to triglyceride: 23.5 ± 7.2 ng/mg triglyceride

## Nc1c[n+](N2CCOCC2)no1 [SIN-1, reference compound]
αKGDH [2]; 400 μM SIN-1, one hour, rat brain mitochondria
  diminution of αKGDH activity: approximately 50%

## Cc1c(O)cc2c(c1C)O[C@](C)(CCC[C@H](C)CCC[C@H](C)CCCC(C)C)CC2 [γ-tocopherol]
αKGDH [2]; 400 μM SIN-1, one hour
  concentration offering as much αKGDH protection as 1-10 μM αT: 50 to 100 nM
αKGDH [2]; all concentrations tested
  αKGDH protection in side-by-side comparison: more protective than αT
αKGDH [2]; concentrations near 100 nM, 400 μM SIN-1
  αKGDH protection relative to corresponding concentration of αT: approximately 5 times
αKGDH [2]; [12]
  maximal αKGDH protection relative to αT: approximately 2.5 times
  tocopherol concentration of maximal αKGDH protection: 1 µM
αKGDH [3]; LPS 2.5 mg/kg I.P., 24 H
  heart αKGDH activity after LPS challenge, ranking among groups: highest heart αKGDH activity
αKGDH [3]; animals not subjected to LPS stress, 15 mg tocopherol I.P. over 30 days
  increase of mean heart αKGDH activity: 40%
[4]
  heart tissue tocopherol concentration, controls: 1.8±0.4 ng/mg protein
[1]; hypertensives, N = 7
  plasma concentration: 0.463 ± 0.165 μg/mL plasma
  plasma concentration normalized to triglyceride: 0.606 ± 0.153 μg/mg triglyceride
[1]; population, N = 54
  plasma concentration: 0.713 ± 0.067 μg/mL plasma
  plasma concentration normalized to triglyceride: 0.813 ± 0.088 μg/mg triglyceride
[1]; smokers, N = 7
  plasma concentration: 0.680 ± 0.153 μg/mL plasma
  plasma concentration normalized to triglyceride: 0.810 ± 0.213 μg/mg triglyceride
platelets; ADP 20 μM, Subject 1
  Platelet Aggregation (% maximum): 117 % maximum
platelets; ADP 20 μM, Subject 2
  Platelet Aggregation (% maximum): 90 % maximum
platelets; PMA 200 nM, Subject 1
  Platelet Aggregation (% maximum): 57 % maximum
platelets; PMA 200 nM, Subject 2
  Platelet Aggregation (% maximum): 29 % maximum
platelets; TRAP 20 μM, Subject 1
  Platelet Aggregation (% maximum): 73 % maximum
platelets; TRAP 20 μM, Subject 2
  Platelet Aggregation (% maximum): 88 % maximum
platelets; TRAP or PMA as agonist
  ability to inhibit PKC-linked platelet aggregation: similarly efficacious to αT
[5]; inventors' observations
  highest observed plasma γT/αT proportionality: 30%
  lowest observed plasma γT/αT proportionality: 0.2%
[5]; platelet-poor plasma, young healthy subjects
  plasma γT concentration as % of αT: ~7%
[6]
  effect on SIN-1 toxicity (MTT viability): promoted viability somewhat
C3H/10T1/2 fibroblasts
  effectiveness at inhibiting neoplastic transformation relative to αT: 4 fold
[7]
  effectiveness at inhibiting lipid hydroperoxide formation relative to αT: twice as effective
[8]
  effectiveness at inhibiting systemic lipid oxidation relative to αT: approximately 35%
[9]; 100 mg/kg/day for 10 days, 29% FeCl3 patch
  delay/increase of time to occlusive thrombus: 65%
[9]; 100 mg/kg/day for 10 days
  inhibition of platelet aggregation kinetics, efficacy relative to αT supplementation: 2 fold
[9]; rat, in vivo
  potency relative to αT at inhibition of thrombogenic correlates, in reference to plasma tocopherol concentrations: 20-30 times
  superoxide dismutase activity in the aortas compared to αT treated group: increased significantly
[10]; own supplementation
  increase of plasma level above baseline: 6 fold
[10]; γT supplemented rats
  plasma γT concentration as % of the αT concentration: ≤ 10%
[11]
  human plasma γT concentration as % of αT: 5-30%
